Laboratory results reported in patent US5281604A, “Angiotensin II receptor blocking 2,3,6-substituted quinazolinones” (American Cyanamid Company, priority 1993, dated 1994).
Where “and” joins values, the source holds several entries; their conditions need not be identical. Equal values may be shown once.

Tested on: ANGIOTENSIN II (AII) VASOPRESSOR RESPONSE
Experiment: AII Challenge: blockade of the angiotensin II vasopressor response in conscious spontaneously hypertensive rats
Type: in vivo, rat (Male Okamoto-Aoki SHR)
Conditions: 3 mg/kg i.v.
Description: By administering a compound of this invention to a rat, and then challenging with angiotensin II, a blockage of the vasopressor response is realized.
Conscious Male Okamoto-Aoki SHR, 16-20 weeks old, weighing approximately 330 g are purchased from Charles River Labs (Wilmington, Mass.). Conscious rats are restrained in a supine position with elastic tape. The area at the base of the tail is locally anesthetized by subcutaneous infiltration with 2% procaine. The ventral caudal artery and vein are isolated, and a cannula made of polyethylene (PE) 10-20 tubing (fused together by heat) is passed into the lower abdominal aorta and vena cava, respectively. The cannula is secured, heparinized (1,000 I.U./ml), sealed and the wound is closed. The animals are placed in plastic restraining cages in an upright position. The cannula is attached to a Statham P23Db pressure transducer, and pulsatile blood pressure is recorded to 10-15 minutes with a Gould Brush recorder. (Chan et al., (Drug Development Res., 18:75-94, 1989).
Angiotensin II (human sequence, Sigma Chem. Co., St. Louis, Mo.) of 0.05 and 0.1 ug/kg i.v. is injected into all rats (predosing response). Then a test compound, vehicle or a known angiotensin II antagonist is administered i.v., i.p. or orally to each set of rats. The two doses of angiotensin II are given to each rat again at 30, 60, 90, 120, 180, 240 and 300 minutes post dosing the compound or vehicle. The vasopressor response of angiotensin II is measured for the increase in systolic blood pressure in mmHg. The percentage of antagonism or blockade of the vasopressor response of angiotensin II by a compound is calculated using the vasopressor response (increase in systolic blood pressure) of angiotensin II of each rat predosing the compound as 100%. A compound is considered active if at 30 mg/kg i.v. it antagonized at least 50% of the response.

[1] = AII 0.05 mcg/kg IV, 30 min post dose
[2] = AII 0.05 mcg/kg IV, 60 min post dose
[3] = AII 0.05 mcg/kg IV, 90 min post dose
[4] = AII 0.05 mcg/kg IV, 120 min post dose
[5] = AII 0.05 mcg/kg IV, 180 min post dose
[6] = AII 0.05 mcg/kg IV, 240 min post dose
[7] = AII 0.05 mcg/kg IV, 300 min post dose
[8] = AII 0.1 mcg/kg IV, 30 min post dose
[9] = AII 0.1 mcg/kg IV, 60 min post dose
[10] = AII 0.1 mcg/kg IV, 90 min post dose
[11] = AII 0.1 mcg/kg IV, 120 min post dose
[12] = AII 0.1 mcg/kg IV, 180 min post dose
[13] = AII 0.1 mcg/kg IV, 240 min post dose
[14] = AII 0.1 mcg/kg IV, 300 min post dose

SMILES: CCCCc1nc2ccc(C3CC4C(c5ccc(C)cc5)=NOC4O3)cc2c(=O)n1Cc1ccc(-c2ccccc2-c2nnn[nH]2)cc1 (stereo not shown) [Example 12]
- % Inhibition [1]: 56%
- Average Change [1]: 16.5 mmHg
- Control Before AII (single rat) [1]: 220 mmHg and 255 mmHg
- Response After AII (single rat) [1]: 233 mmHg and 275 mmHg
- Response Change (single rat) [1]: 13 mmHg and 20 mmHg
- % Inhibition [2]: 53%
- Average Change [2]: 17.5 mmHg
- Control Before AII (single rat) [2]: 215 mmHg and 245 mmHg
- Response After AII (single rat) [2]: 235 mmHg and 260 mmHg
- Response Change (single rat) [2]: 20 mmHg and 15 mmHg
- % Inhibition [3]: 60%
- Average Change [3]: 15 mmHg
- Control Before AII (single rat) [3]: 225 mmHg and 235 mmHg
- Response After AII (single rat) [3]: 240 mmHg and 250 mmHg
- Response Change (single rat) [3]: 15 mmHg
- % Inhibition [4]: 45%
- Average Change [4]: 20.5 mmHg
- Control Before AII (single rat) [4]: 207 mmHg and 225 mmHg
- Response After AII (single rat) [4]: 233 mmHg and 240 mmHg
- Response Change (single rat) [4]: 26 mmHg and 15 mmHg
- % Inhibition [5]: 33%
- Average Change [5]: 25 mmHg
- Control Before AII (single rat) [5]: 195 mmHg and 225 mmHg
- Response After AII (single rat) [5]: 225 mmHg and 245 mmHg
- Response Change (single rat) [5]: 30 mmHg and 20 mmHg
- % Inhibition [6]: 53%
- Average Change [6]: 17.5 mmHg
- Control Before AII (single rat) [6]: 220 mmHg and 230 mmHg
- Response After AII (single rat) [6]: 240 mmHg and 245 mmHg
- Response Change (single rat) [6]: 20 mmHg and 15 mmHg
- % Inhibition [7]: 48%
- Average Change [7]: 19.5 mmHg
- Control Before AII (single rat) [7]: 220 mmHg and 230 mmHg
- Response After AII (single rat) [7]: 245 mmHg and 244 mmHg
- Response Change (single rat) [7]: 25 mmHg and 14 mmHg
- % Inhibition [8]: 53%
- Average Change [8]: 18.5 mmHg
- Control Before AII (single rat) [8]: 218 mmHg and 250 mmHg
- Response After AII (single rat) [8]: 245 mmHg and 260 mmHg
- Response Change (single rat) [8]: 27 mmHg and 10 mmHg
- % Inhibition [9]: 42%
- Average Change [9]: 22.5 mmHg
- Control Before AII (single rat) [9]: 220 mmHg and 240 mmHg
- Response After AII (single rat) [9]: 245 mmHg and 260 mmHg
- Response Change (single rat) [9]: 25 mmHg and 20 mmHg
- % Inhibition [10]: 29%
- Average Change [10]: 27.5 mmHg
- Control Before AII (single rat) [10]: 220 mmHg and 230 mmHg
- Response After AII (single rat) [10]: 250 mmHg and 255 mmHg
- Response Change (single rat) [10]: 30 mmHg and 25 mmHg
- % Inhibition [11]: 23%
- Average Change [11]: 30 mmHg
- Control Before AII (single rat) [11]: 205 mmHg and 225 mmHg
- Response After AII (single rat) [11]: 240 mmHg and 250 mmHg
- Response Change (single rat) [11]: 35 mmHg and 25 mmHg
- % Inhibition [12]: 42%
- Average Change [12]: 22.5 mmHg
- Control Before AII (single rat) [12]: 205 mmHg and 225 mmHg
- Response After AII (single rat) [12]: 225 mmHg and 250 mmHg
- Response Change (single rat) [12]: 20 mmHg and 25 mmHg
- % Inhibition [13]: 10%
- Average Change [13]: 35 mmHg
- Control Before AII (single rat) [13]: 220 mmHg and 225 mmHg
- Response After AII (single rat) [13]: 260 mmHg and 255 mmHg
- Response Change (single rat) [13]: 40 mmHg and 30 mmHg
- % Inhibition [14]: 10%
- Average Change [14]: 35 mmHg
- Control Before AII (single rat) [14]: 220 mmHg and 225 mmHg
- Response After AII (single rat) [14]: 255 mmHg and 260 mmHg
- Response Change (single rat) [14]: 35 mmHg
